Among the data in patent US20070275968A1, “Substituted Biphenyl Derivative” (priority 2004, published 2007) are melting point and IC50 values, retold here.

pIC50: −log10 of the molar value.

The test system of data set [1] is NRK-49F cells. Kind of data set: Collagen synthesis inhibition test. Conditions: Rattus norvegicus, 25 ng/mL TGF-β added, cultured about 44 hr, 3H-labeled proline taken into collagen, no TGF-β = 100% inhibition, no test compound = 0% inhibition, read-out: Collagen synthesis inhibiting activity IC50. It counts as cell-based. Here is the method: Collagen Synthesis Inhibition Test
Collagen synthesis inhibiting activity was evaluated by the following assay.
NRK-49F cells (Dainippon Pharmaceutical) are seeded into a 96-well plate. After becoming confluent, the medium is changed to a serum-free Dulbecco's modified MEM medium (Invitrogen) containing 5 μg/mL insulin, 5 μg/mL transferin, and 5 ng/mL selenious acid. One day later, the medium is changed to a serum-free Dulbecco's modified MEM medium (80 μl) containing 10 ng/mL IGF-II (Sigma) and 50 μg/mL L-ascorbic acid (Sigma), and a ten times concentration of a test compound (10 μl) is added thereto. Thirty minutes later, 25 ng/mL TGF-β (R&D System: 10 μL) is added to the medium, and the cells are cultured for about 44 hr. Twenty four hours before the termination of the culturing, ^3H-labeled proline (Amersham: 1 μCi) is added so as to be taken into collagen in the cells. When the culturing is terminated, 30% trichloroacetic acid (50 μL) is added to the medium. After leaving for 20 min, proteins are precipitated by centrifugation at 3000 rpm for 10 min. The supernatant is removed, and the residue is twice washed with 200 μL of a washing solution (ethanol:ether=3:1). The precipitate is air-dried, and the washing solution is sufficiently removed. After addition of 60 μL of a collagenase solution (2 mg/mL collagenase VII (Sigma), 50 mM Tris-HCl (pH 7.4), 5 mM CaCl2), the resulting mixture is treated at 37° C. for 2 hr to decompose collagen. Then, 90 μL of 15% trichloroacetic acid and 5% tannic acid are added thereto. The resulting mixture is left for 20 min and then centrifuged at 3000 rpm for 10 min. The supernatant (50 μL) is transferred to LumaPlate (PerkinElmer Lifescience) and is air-dried. Then, the amount of ^3H is measured by a Top Count.

Broadly, the melting point is the temperature, or range, at which the solid turns liquid. As usually defined, the pIC50 is −log10 of the IC50, conventionally taken in molar units. For `Cc1cccc(-c2n[nH]cc2-c2ccc(F)c(-c3c[nH]c(CCO)n3)c2)n1` [Example 209, 2-(4-{2-Fluoro-5-[3-(6-methylpyridin-2-yl)-1H-pyrazol-4-yl]phenyl}-1H-imidazol-2-yl)ethanol], the melting point was in the range of 219 to 220 °C. Further, in data set [1], the pIC50 is 7.30.

`Cc1cccc(-c2n[nH]cc2-c2ccc(F)c(-c3cn4c(n3)S(=O)(=O)CC4)c2)n1` [Example 212, 6-{2-Fluoro-5-[3-(6-methylpyridin-2-yl)-1H-pyrazol-4-yl]phenyl}-2,3-dihydroimidazo[2,1-b][1,3]thiazole 1,1-dioxide]: the melting point lay within 134 to 138 °C. In addition, the pIC50 in data set [1] was 6.96.

In the case of `Cc1cccc(-c2nc(N)sc2-c2ccc(F)c(-c3cnn(C)c3)c2)n1` [Example 217, 5-[4-Fluoro-3-(1-methyl-1H-pyrazol-4-yl)phenyl]-4-(6-methylpyridin-2-yl)-1,3-thiazol-2-amine], the melting point was 153 to 155 °C. In data set [1], the pIC50 is 8.00.
